{
  "source": "patent US10723998B2",
  "about": "“Application of ethyl p-methoxycinnamate and derivatives thereof in maintaining self-renewal and pluripotency of stem cells” (NORTHEAST NORMAL UNIVERSITY, priority 2015, dated 2020)",
  "key": {"Oct4 mRNA": {"test_system": "Oct4 mRNA", "assay": "Oct4 mRNA expression by RT-PCR and agarose gel electrophoresis in P19 cells", "format": "cell-based, mouse", "details": "5 μg/mL, 12 h, DMSO control, FIG. 2", "description": "P19 cells were inoculated in a 6-well cell culture plate at a density of 2×10^5 cells/well. After 24 h, DMEM culture medium containing 3% serum were used for replacement. Ethyl p-methoxycinnamate was added to the experimental group to render its final concentration at 5 μg/mL, and a control group was treated with DMSO. After 12 h, the 6-well plate overgrown with monolayer cells was taken out from a cell incubator, and the cells were washed 3 times with pre-cooled PBS. 1 mL of a pre-cooled Trizol solution was added. After vigorous pipetting, the mixture was transferred to an EP tube and allowed to stand at room temperature for 5 min. Then 200 μL of chloroform was added to the mixture, vigorously mixed well for 15 s, and the mixture containing chloroform was allowed to stand at room temperature for 2 min and centrifuged at 12000 rpm at 4° C. for 15 min. An upper aqueous phase was pipetted into another EP tube, and an equal volume of pre-cooled isopropanol was added, and the mixture was inverted several times and allowed to stand at room temperature for 10 min to precipitate RNA. After centrifugation at 12000 rpm for 10 min, the supernatant was discarded, and to the precipitate was added 1 mL of 75% ethanol (prepared by 0.1% DEPC water) for washing, followed by centrifugation at 7500 rpm for 5 min (this step was repeated once). The supernatant was discarded. […]"}, "mouse teratoma cells P19 [1]": {"test_system": "mouse teratoma cells P19", "assay": "Formation of microspheres of suspendedly cultured stem cells (soft agar, MTT dyeing)", "format": "cell-based", "details": "5 μg/mL, P19 cells on 0.5% soft agar, 7 d, compared with DMSO control; FIG. 4", "description": "5 g agar was weighed and placed in a flask, then 100 mL of ultra-pure water was added, and the mixture was mixed well, sealed, and then autoclaved for 30 min. In a super clean bench, 9 mL of pre-heated (50-60° C.) serum-free DMEM culture medium was pipetted into a 10 mL centrifuge tube, then 1 mL of uncooled 5% agar was added, and rapidly mixed well with a pipette, resulting in 0.5% agar. 1 mL of 0.5% agar was pipetted into one well of a 6-well plate and cooled at room temperature for 20-30 min, resulting in a 0.5% soft agar culture medium.\nIn the super clean bench, D-Hanks was gently added to the surface of the soft agar culture medium, and the D-Hanks was discarded after being gently shaken 2 to 3 times. Cleaning was repeated once. The mouse teratoma cells P19 were gently inoculated on the surface of the soft agar culture medium at a cell density of 4×10^5 cells/well. After the cell inoculation, ethyl p-methoxycinnamate was added to 1 mL of DMEM culture medium containing 10% fetal calf serum, mixed well, and then gently added to the experimental group. A final concentration of ethyl p-methoxycinnamate was 5 μg/mL. The control group was treated with DMSO. […]"}, "mouse teratoma cells P19 [2]": {"test_system": "mouse teratoma cells P19", "assay": "Formation of microspheres of adherently cultured stem cells", "format": "cell-based", "details": "5 μg/mL, 3% fetal calf serum DMEM, 22 d, compared with control, FIG. 5", "description": "In a super clean bench, mouse teratoma cells P19 were inoculated in a 6-well plate at a density of 1×10^4 cells/well, and DMEM culture medium containing 10% fetal calf serum was added to result in a final volume of 2 mL. The cell culture plate was gently shaken, so that the cells were uniformly distributed in the cell culture plate, and then placed in a cell incubator to be cultured. After 24 h, the old culture medium were discarded, and 3% fetal calf serum DMEM culture medium containing ethyl p-methoxycinnamate was added, so that the final concentration of ethyl p-methoxycinnamate was 5 μg/mL. The original culture medium was discarded every 24 h, and fresh DMEM culture medium containing 3% fetal calf serum was added, and the final concentration of ethyl p-methoxycinnamate therein was made to be 5 μg/mL likewise. After continuous culture of 22 d, the cells were photographed."}},
  "data": [
    {"smiles": "CCOC(=O)C=Cc1ccc(OC)cc1", "note": "[ethyl p-methoxycinnamate]", "values": [
      {"measurement": "effect on the expression of Oct4 mRNA", "setting": "Oct4 mRNA", "result": "can significantly promote the expression of Oct4 mRNA"},
      {"measurement": "formation of microspheres of suspendedly cultured stem cells", "setting": "mouse teratoma cells P19 [1]", "result": "the P19 cells can form a higher amount of larger and more typical microspheres"},
      {"measurement": "formation of microspheres of adherently cultured stem cells", "setting": "mouse teratoma cells P19 [2]", "result": "the P19 cells can form typical microspheres"}
    ]}
  ]
}
